From article PMC10412585 (Nature Communications, 2023)
“Also recorded” adds a separate entry of the source. Read-outs that look alike come from different tables or passages of the source.

Key:
Type in all cases: cell-based, human
[1] = test system: HLA-E; assay: HLA-E surface stabilization assay with RMA-S/HLA-E cells; settings: peptide 3-300 µM (Fig. 3: 30 µM) in OptiMEM, 16 h, 37 °C, anti-HLA-E 3D12, flow cytometry, n = 4 replicate experiments
Procedure: To probe top-predicted proteome-derived peptides (Tables 2 and 3) for HLA-E binding, we assessed their ability to stabilize surface-expressed HLA-E on RMA-S/HLA-E cells, a TAP-deficient mouse cell line engineered to express HLA-E and human β2M (Fig. 3 and Supplemental Fig. 8)[47].
Fig. 3 Peptide stabilization of HLA-E surface expression. Assessment of peptide-HLA-E binding via HLA-E surface stabilization assay with RMA-S/HLA-E cells incubated with 30 μM peptide. HLA-E expression is detected with an anti-HLA-E antibody. Measurements from n = 4 replicate experiments are shown, with solid black lines indicating mean values. […] Source data are provided as a Source Data file.
RMA-S/HLA-E cells were incubated with serial dilutions of peptides (3–300 µM, Genscript) in OptiMEM (ThermoFisher) for 16 h at 37 °C. Cells were washed with PBS, stained for HLA-E (Clone 3D12, Biolegend, 1:200 dilution) for 15 min at room temperature and analyzed by flow cytometry (analysis in FlowJo version 10). Peptide UBAC2_275-279 was ordered as a 5mer peptide (WNRLF) given the similarity with other WN peptides and hypothesis of a truncated peptide binding in the HLA-E groove. […] Measurements from replicate experiments are plotted in Fig. 3 and Supplemental Fig. 8.

[2] = test system: NKG2C+ NK cells; assay: NK cell activation assay with peptide-pulsed RMA-S/HLA-E cells; settings: for average percent CD107a+: NKG2C+ NK cells with RMA-S/HLA-E cells, Fig. 4B, stated in author rebuttal
Procedure: (§1) Fig. 4 NK cell stimulation assays. Assessment of effects of peptides on NK cell activity through incubation of NK cells, peptides, and (A) K562/HLA-E or (B) RMA-S/HLA-E target cells. […] Replicates for individual peptides are from different donors, with solid black lines indicating mean values. […] Representative gating for NKG2A^+/NKG2C^- and NKG2A^-/NKG2C^+ NK cells is shown in Supplemental Fig. 14. Source data are provided as a Source Data file.
In contrast to K562 cell lines which are targets for human NK cells, RMA-S cells (a TAP-deficient mouse cell line)[48] are inert to human NK cells and thus will not activate NK cells absent engagement of an activating receptor on the NK cells. […] We performed additional NK cell activation assays with RMA-S/HLA-E cells (Fig. 4B).
(§2) All analyses of human data were carried out in compliance with the relevant ethical regulations. Healthy blood donors gave informed consent at DRK Blutspendedienst Nord-Ost, Dresden, Germany, and buffy coats were obtained as approved by Charité ethics committee (EA4/059/17). PBMCs were isolated from human CMV-seropositive buffy coats by density centrifugation over Ficoll Paque Plus (GE Healthcare) and screened for the presence of NKG2C^+ NK cell expansions by flow cytometry to have sufficient frequencies of single-positive cells for parallel assessment of activation and inhibition via HLA-E[47]. Total NK cells from donors with NKG2C^+ expansions (>10% NKG2A^-/NKG2C^+ NK cells) were enriched with CD56 microbeads (Miltenyi Biotec) and cryopreserved in FBS with 10% v/v DMSO. After thawing, NK cells were washed with complete medium, stained with antibodies and Fixable Viability Dye eFluor 780 (Thermo Fisher) for 15 min at 4 °C in PBS, sorted as viable CD56^+ CD3^− cells, and rested in complete media overnight. […] Brefeldin A and Monensin (BD Biosciences) were added after a 1 h culture period. After an additional 5 h, the stimulation was stopped by centrifugation at 4 °C. Cells underwent surface staining, followed by fixation and intracellular staining using Inside Stain Kit (Miltenyi Biotec). Samples were analyzed by flow cytometry on an LSR Fortessa (BD Biosciences). Inhibition of NKG2A^+ NK cells and activation of NKG2C^+ NK cells was assessed by gating on the respective single-positive populations (Supplemental Fig. 14). Antibodies are listed in Supplemental Table 1: anti-human CD56 PE/Dazzle 594 (1:200 dilution), CD3 APC-eFluor 780 (1:50 dilution), anti-human CD159a (NKG2A) Biotin REAfinity (1:50 dilution), anti-human CD159c (NKG2C) PE REAfinity (1:100 dilution), anti-human CD107a (LAMP-1) Alexa Fluor 488 (1:400 dilution), anti-human IFN-γ PE-Vio 770 REAfinity (1:50 dilution), anti-human TNF-α Brilliant Violet 605 (1:50 dilution), anti-human CCL3 (MIP-1α) REAfinity (1:25 dilution).

[3] = test system: NKG2A+/NKG2C- NK cells; assay: NK cell activation assay with peptide-pulsed K562/HLA-E cells, NKG2A+/NKG2C- NK cells; settings: K562/HLA-E target cells, 300 µM peptide ([…] µM BFAR263-271), E:T 2:1, 6 h; degranulation (CD107a), IFN-γ, TNF, CCL3; flow cytometry
Procedure: (§3) We hypothesized that our predicted proteome-derived peptides could affect NK cell activation through interactions with CD94/NKG2A and CD94/NKG2C. To investigate, we performed cell-based activation assays on primary NK cells (Fig. 4A). NK cells were co-incubated with peptide-pulsed HLA-E-expressing K562 cells, as described previously. The parental K562 human myelogenous leukemia cell line is a typical target to measure NK cell cytotoxicity and activation, allowing for assessment of both NKG2A-mediated inhibition and NKG2C-mediated activation. […] NKG2A^-/NKG2C^- NK cells served as internal control as these should be unaffected by peptide-HLA-E complexes (Supplemental Fig. 12).
as §1, §2

[4] = test system: NKG2A-/NKG2C+ NK cells; assay: NK cell activation assay with peptide-pulsed K562/HLA-E cells, NKG2A-/NKG2C+ NK cells; settings: K562/HLA-E target cells, 300 µM peptide ([…] µM BFAR263-271), E:T 2:1, 6 h; degranulation (CD107a), IFN-γ, TNF, CCL3; flow cytometry
Procedure: as §3, §1, §2

[5] = RMA-S/HLA-E target cells, 300 µM peptide ([…] µM BFAR263-271), E:T 2:1, 6 h, flow cytometry, n = 3 (n = 2 for some) donors

Substance	stabilization of HLA-E surface expression [1]	NKG2C-mediated NK cell activation [2]	inhibitory effects on NKG2A+ cells [3]	activating effects on NKG2C+ cells [4]	NKG2C-mediated NK cell activation [2, 5]	average percent CD107a+ [2] [%]
FLPNRSLLF [SLC52A3_354-362, human peptide from Solute carrier family 52, riboflavin transporter, member 3]	strong binding that is weaker than VMAPRTLFL; also recorded: strong stabilization	activation similar to the weaker positive control ([…]) or between the two positive controls	more moderate inhibitory effects	strong activating effects		
ILTDRSLWL [FBXO41_670-678, human peptide from F-box only protein 41]	strong binding that is weaker than VMAPRTLFL; also recorded: strong stabilization		more moderate inhibitory effects	strong activating effects	activation at the level of the strongest positive control binder (VMAPRTLFL)	
NMPARTVLF [MTREX490-498, human peptide from Exosome RNA helicase MTR4]	strong binding that is weaker than VMAPRTLFL; also recorded: strong stabilization		strong inhibitory effects	strong activating effects	detectable activation, though below both positive control examples	
RMPPRSVLL [INTS1_260-268, human peptide from Integrator complex subunit 1]	HLA-E stabilization matching VMAPRTLFL peptide; also recorded: strong stabilization		strong inhibitory effects	strong activating effects		
SVPLKTRFL [UL120_71-79, BE/33/2010, divergent UL120 peptide of CMV strain BE/33/2010]	weaker but detectable stabilization		minimal effects	minimal effects		
TAPARTMFL [PISD55-63, human peptide from Phosphatidylserine decarboxylase proenzyme, mitochondrial]	strong binding that is weaker than VMAPRTLFL; also recorded: strong stabilization	detectable activation, though below both positive control examples	minimal inhibitory effects	clear activating effects		7.8
TGAARSFFF [UL102_292-300, CMV peptide from DNA helicase/primase complex-associated protein]	no detectable binding; also recorded: no stabilizing effects					
TLPERTLYL [ECEL1_269-277, human peptide from Endothelin-converting enzyme-like 1]	HLA-E stabilization matching VMAPRTLFL peptide; also recorded: strong stabilization	activation similar to the weaker positive control ([…]) or between the two positive controls	strong inhibitory effects	strong activating effects		
TLPKRGLFL [AKAP6_388-396, human peptide from A-kinase anchor protein 6]	strong binding that is weaker than VMAPRTLFL; also recorded: strong stabilization		more moderate inhibitory effects	strong activating effects	activation at the level of the strongest positive control binder (VMAPRTLFL)	
VMADKSIFY [OR5D14_88-96, human peptide from Olfactory receptor 5D14]	no detectable binding; also recorded: no stabilizing effects					
VMAPQSLLL [negative control peptide, reference compound]		Minimal activation				1.1
VMAPRTLIL [canonical signal peptide / CMV UL40-derived HLA-E ligand; positive control, reference compound]					weaker positive control	
VMGDRSVLY [EMC1_725-733, human peptide from ER membrane protein complex subunit 1]	no detectable binding; also recorded: no stabilizing effects					
VMPGRTLCF [TACR3_226-234, human peptide from Neuromedin-K receptor]	HLA-E stabilization matching VMAPRTLFL peptide; also recorded: strong stabilization	activation similar to the weaker positive control ([…]) or between the two positive controls	strong inhibitory effects	strong activating effects		
WNRIL [length variant of WN peptide]	did not stabilize HLA-E surface					
WNRILP [length variant of WN peptide]	did not stabilize HLA-E surface					
WNRILPN [length variant of WN peptide]	did not stabilize HLA-E surface					
WNRILPNA [length variant of WN peptide]	did not stabilize HLA-E surface					
WNRILPNAY [library-derived WN 9mer peptide (P1 Trp, P2 Asn)]	did not stabilize HLA-E surface					
WNRLF [UBAC2_275-279, UBAC2 peptide ordered and tested as a 5mer peptide (WNRLF)]	no detectable binding; also recorded: no stabilizing effects					
